Test results reported in patent publication US20100221308A1, “ANTIMICROBIAL COMPOSITIONS AND USES THEREOF” (KANE BIOTECH INC., priority 2005, published 2010).
Values after ≈ are worked out from the molar mass of the structure shown. Read-outs that look alike come from different tables or passages of the source.

What was measured:
B. cereus = experiment: MIC, broth microdilution assay; type: cell-based, Bacillus cereus; settings: agent alone, 24 h
K. pneumoniae = experiment: MIC, broth microdilution assay; type: cell-based, Klebsiella pneumoniae; settings: agent alone, 24 h
S. mutans UA 159 = experiment: MIC for oral bacteria, broth microdilution assay; type: cell-based; settings: agent alone, 24 h
Procedure: (§1) The minimum inhibitory concentrations (MICs) of chlorhexidine (CHX) and protamine sulfate (PS) alone and CHX and PS combination for S. mutans, S. sobrinus and A. naeslundii were determined using a broth microdilution assay in 96-well microtiter plate as described previously (Amsterdam, D. 1996., In: V. Loman, Ed., “Antibiotics in laboratory medicine”, p. 52-111, Williams and Wilkins, Baltimore, Md.). S. mutans and S. sobrinus were grown overnight at 37° C. with 100 rpm shaking in THYE broth supplemented with 0.01% hog gastric mucin, and A. naeslundii was grown in TSB-YK broth, and diluted to approximately 10^5 CFU/ml. […] Plates were incubated at 37° C. for 24 h and were read at 600 nm using a microtiter plate reader (Labsystems, Multiskan Ascent, Helsinki, Finland).

A. naeslundii ATCC 12104 = experiment: MIC for oral bacteria, broth microdilution assay; type: cell-based; settings: agent alone, 24 h
Procedure: as §1

S. sobrinus HNG 909S = experiment: MIC for oral bacteria, broth microdilution assay; type: cell-based; settings: agent alone, 24 h
Procedure: as §1

C. perfringens = experiment: microbe, parasite or virus in culture; type: cell-based, Clostridium perfringens; settings: 24 h
S. aureus = experiment: MIC, broth microdilution assay; type: cell-based, Staphylococcus aureus; settings: agent alone, 24 h
L. monocytogens = experiment: MIC, broth microdilution assay; type: cell-based, Listeria monocytogenes; settings: agent alone, 24 h
S. thermophilus = experiment: MIC, broth microdilution assay; type: cell-based, Streptococcus thermophilus; settings: agent alone, 24 h
P. aeruginosa = experiment: MIC, broth microdilution assay; type: cell-based, Pseudomonas aeruginosa; settings: agent alone, 24 h
E. coli = experiment: MIC, broth microdilution assay; type: cell-based; settings: agent alone, 24 h
[1] = test system: biofilm embedded Staphylococcus epidermidis; experiment: In vitro microplate assay, growth of biofilm embedded bacteria (CFU); type: cell-based; settings: FIG. 3: 12.5 μg/ml PS, 12.5 μg/ml CHX; 24 hours
Procedure: In vitro microplate assays were performed to determine the enhanced effects of protamine sulfate and chlorhexidine salt combination on the growth of biofilm embedded biofilm forming catheter-associated bacteria such as E. coli, Pseudomonas aeruginosa and Staphylococcus epidermidis. Overnight culture of each bacterial strain grown in Luria-Bertani (LB) or Tryptic Soy Broth (TSB) was used as inoculum. […] The plate was incubated at 37° C. for 24 hours. Media containing planktonic cells in each well were removed gently and rinsed with sterile water. A known volume of water was added to each well and sonicated for 30 seconds. The transfer of contents of each well into a sterile tube and vortexing for a minute was followed by 10-fold serial dilution and plating on agar plates using a spreader. After incubating the plates at 37° C. for 24 hours, the colonies forming units (CFU) were counted.

biofilm embedded E. coli = experiment: as above; type: cell-based; settings: FIG. 1: 50 μg/ml PS, 12.5 μg/ml CHX; 24 hours
Procedure: (§2) In vitro microplate assays were performed to determine the enhanced effects of protamine sulfate and chlorhexidine salt combination on the growth of biofilm embedded biofilm forming catheter-associated bacteria such as E. coli, Pseudomonas aeruginosa and Staphylococcus epidermidis. Overnight culture of each bacterial strain grown in Luria-Bertani (LB) or Tryptic Soy Broth (TSB) was used as inoculum. Bacteria were grown in Colony Forming Antigen (CFA) medium (for gram-negative) or in TSB (for gram-positive) on a 12-well microplate in the absence and presence of each test compound (PS or CHX) separately and together (PS+CHX) at 12.5, 25, or 50 μg/ml. The plate was incubated at 37° C. for 24 hours. Media containing planktonic cells in each well were removed gently and rinsed with sterile water. A known volume of water was added to each well and sonicated for 30 seconds. The transfer of contents of each well into a sterile tube and vortexing for a minute was followed by 10-fold serial dilution and plating on agar plates using a spreader. After incubating the plates at 37° C. for 24 hours, the colonies forming units (CFU) were counted.

[2] = test system: biofilm embedded Pseudomonas aeruginosa; experiment: as above; type: cell-based; settings: FIG. 2: 25 μg/ml PS, 25 μg/ml CHX; 24 hours
Procedure: as §2

protamine sulfate [PS]
MIC (B. cereus): >200 µg/mL | MIC (K. pneumoniae): >200 µg/mL | Minimum inhibitory concentration (S. mutans UA 159): >200 µg/mL | Minimum inhibitory concentration (A. naeslundii ATCC 12104): >200 µg/mL | Minimum inhibitory concentration (S. sobrinus HNG 909S): >200 µg/mL | MIC (C. perfringens; agent alone): >200 µg/mL | MIC (S. aureus): 200 µg/mL | MIC (L. monocytogens): 200 µg/mL | MIC (S. thermophilus): 200 µg/mL | MIC (P. aeruginosa): 200 µg/mL | MIC (E. coli): >100 µg/mL

[H]/N=C(\N/C(=N/[H])NCCCCCCNC(=N)NC(=N)Nc1ccc(Cl)cc1)Nc1ccc(Cl)cc1 [CHX, chlorhexidine]
inhibition of growth of biofilm embedded organism (CFU), in words [1]: more effective than protamine sulfate | MIC (B. cereus; Bacillus cereus, read-out: MIC): 3.12 µg/mL (≈ 6.18 µM) | MIC (K. pneumoniae; Klebsiella pneumoniae, read-out: MIC): 6.25 µg/mL (≈ 12.4 µM) | MIC (S. mutans UA 159; Streptococcus mutans, UA159, read-out: Minimum inhibitory concentration): 6.25 µg/mL | MIC (A. naeslundii ATCC 12104; Actinomyces naeslundii, ATCC12104, read-out: Minimum inhibitory concentration): 50 µg/mL | MIC (S. sobrinus HNG 909S; Streptococcus sobrinus, HNG909S, read-out: Minimum inhibitory concentration): 1.56 µg/mL | MIC (C. perfringens; Clostridium perfringens): 1.56 µg/mL (≈ 3.09 µM) | inhibition of growth of biofilm embedded organism (CFU), in words (biofilm embedded E. coli): more effective than protamine sulfate | inhibition of growth of biofilm embedded organism (CFU), in words [2]: more effective than protamine sulfate | MIC (S. aureus; Staphylococcus aureus, read-out: MIC): 0.781 µg/mL (≈ 1.55 µM) | MIC (L. monocytogens; Listeria monocytogenes, read-out: MIC): 3.12 µg/mL (≈ 6.18 µM) | MIC (S. thermophilus; Streptococcus thermophilus, read-out: MIC): < 0.195 µg/mL | MIC (P. aeruginosa; Pseudomonas aeruginosa, read-out: MIC): 12.5 µg/mL (≈ 24.7 µM) | MIC (E. coli; Escherichia coli, read-out: MIC): 0.39 µg/mL (≈ 0.772 µM)
